Data taken from ChEMBL document CHEMBL2331300, “Inhibition of enterovirus 71 infections and viral IRES activity by Fructus gardeniae and geniposide” (2013).

Columns and labels:
Enterovirus A71 [1] = assay: Antiviral activity against EV71 infected in human RD cells assessed as cell survival rate at 1 to 2 mg/ml after 24 hrs by WST-1 assay; format: functional
Enterovirus A71 [2] = assay: Antiviral activity against EV71 infected in human RD cells assessed as viral RNA transcript level at 1 mg/ml treated 24 hrs prior to infection measured after 24 hrs by real time RT-PCR analysis; format: functional
RD [3] = assay: Inhibitory activity of EMCV IRES co-transfected with EV71 5' UTR in human RD cells at 2 mg/ml after 24 hrs by luciferase reporter gene assay; format: cell-based; details: Encephalomyocarditis virus
RD [4] = assay: Inhibitory activity of EV71 IRES co-transfected with EMCV IRES in human RD cells at 2 mg/ml after 24 hrs by luciferase reporter gene assay; format: cell-based; details: Enterovirus A71
Enterovirus A71 [5] = assay: Antiviral activity against EV71 infected in human RD cells assessed as inhibition of viral infection at 2 mg/ml treated 24 hrs prior to infection measured after 72 hrs by WST-1 assay; format: functional; details: Enterovirus A
Enterovirus A71 [6] = assay: Antiviral activity against EV71 infected in human RD cells assessed as viral RNA transcript level at 2 mg/ml treated 24 hrs prior to infection measured after 24 hrs by real time RT-PCR analysis; format: functional

| Structure (SMILES) | Survival (Enterovirus A71 [1]) | Activity (Enterovirus A71 [2]) [%] | inhibition (RD [3]) [%] | inhibition (RD [4]) [%] | inhibition at 2000 µg/mL (Enterovirus A71 [5]) [%] | Activity (Enterovirus A71 [6]) [%] |
| --- | --- | --- | --- | --- | --- | --- |
| CC(/C=C/C=C(\C)C(=O)O[C@@H]1O[C@H](CO[C@@H]2O[C@H](CO)[C@@H](O)[C@H](O)[C@H]2O)[C@@H](O)[C@H](O)[C@H]1O)=C\C=C\C=C(C)\C=C\C=C(/C)C(=O)O[C@@H]1O[C@H](CO[C@@H]2O[C@H](CO)[C@@H](O)[C@H](O)[C@H]2O)[C@@H](O)[C@H](O)[C@H]1O [CROCIN] | >=80% |  |  |  |  |  |
| COC(=O)C1=CO[C@@H](O)[C@@H]2C(CO)=CC[C@H]12 [GENIPIN] | >=80% |  |  |  |  |  |
| COC(=O)C1=CO[C@@H](O[C@@H]2O[C@H](CO)[C@@H](O)[C@H](O)[C@H]2O)[C@@H]2C(CO)=CC[C@H]12 [GENIPOSIDE] | >=80% | 60 | 50 | 50 | 80 | 20 |
| O=C(O)C1=CO[C@@H](O[C@@H]2O[C@H](CO)[C@@H](O)[C@H](O)[C@H]2O)[C@@H]2C(CO)=CC[C@H]12 [GENIPOSIDIC ACID] | >=80% |  |  |  |  |  |
